From the SangsterLogP compilation

Columns and labels:
[1] = method code SF-AS, from DOI: 10.1007/s11095-005-4582-3, PMID: 15948031

| logP [1] | logP | SMILES |
| --- | --- | --- |
| 1.62 |  | Cc1c(C=O)ssc1=O |
| 2.56 |  | COc1c(C=O)ssc1=S |
|  | 1.14 | CC(=O)c1cc(=O)ss1 |
|  | 1.58 | CC(=O)c1ssc(=O)c1C |
|  | 3.31 | CC(=O)c1ssc(=S)c1-c1ccccc1 |
| 2.58 |  | CCc1c(C=O)ssc1=O |
| 2.16 |  | O=Cc1ssc(=O)c1Cl |
| 3.43 |  | O=Cc1ssc(=S)c1-c1ccccc1 |
|  | 1.81 | O=Cc1cc(=O)ss1 |
| 3.15 |  | CCc1c(C=O)ssc1=S |
|  | 2.18 | CC(=O)c1cc(=S)ss1 |
|  | 1.83 | COc1c(C=O)ssc1=O |
| 2.95 |  | O=Cc1ssc(=S)c1Cl |
|  | 2.5 | CC(=O)c1ssc(=O)c1-c1ccccc1 |
|  | 2.94 | O=Cc1ssc(=O)c1-c1ccccc1 |
|  | 2.87 | Cc1c(C=O)ssc1=S |
|  | 2.12 | CCc1c(C(C)=O)ssc1=O |
|  | 2.53 | O=Cc1cc(=S)ss1 |
|  | 3.21 | CCc1c(C(C)=O)ssc1=S |
